Reference: PubChem BioAssay (NCI)
Several values for one entry are separate records, joined by “and”; a condition that tells them apart may be missing. Equal entries are not always repeated.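 Interpolation was linear, between the two tested concentrations surrounding the appropriate level; five concentrations were tested over 48 hours in 96-well plates. Here, GI50 denotes the concentration required for 50% inhibition of growth. At the TGI there is no net growth.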

How the values were obtained:
Assay in all cases: inhibition of tumour cell growth, NCI panel, 48 h
[1] = system: K-562 leukemia
[2] = system: HT29 colon
[3] = system: M19-MEL melanoma
[4] = system: A498 renal
[5] = system: M14 melanoma
[6] = system: ACHN renal
[7] = system: 786-0 renal
[8] = system: SK-OV-3 ovarian
[9] = system: SN12C renal
[10] = system: HOP-62 NSCLC
[11] = system: SK-MEL-2 melanoma
[12] = system: A549 NSCLC
[13] = system: SK-MEL-5 melanoma
[14] = system: IGROV1 ovarian
[15] = system: LXFL 529 NSCLC
[16] = system: MOLT-4 leukemia
[17] = system: CAKI-1 renal
[18] = system: RPMI-8226 leukemia
[19] = system: NCI-H460 lung
[20] = system: SNB-19 CNS
[21] = system: MALME-3M melanoma
[22] = system: HL-60(TB) leukemia
[23] = system: CCRF-CEM leukemia
[24] = system: U251 CNS
[25] = system: HOP-92 NSCLC
[26] = system: SF-295 CNS
[27] = system: SNB-75 CNS
[28] = system: DLD-1 colon
[29] = system: KM12 colon
[30] = system: SK-MEL-28 melanoma
[31] = system: UACC-257 melanoma
[32] = system: NCI-H522 lung
[33] = system: SF-268 CNS
[34] = system: SR leukemia
[35] = system: HCC-2998 colon
[36] = system: DMS 273 small cell lung
[37] = system: XF 498 CNS
[38] = system: OVCAR-4 ovarian
[39] = system: TK-10 renal
[40] = system: SNB-78 CNS
[41] = system: OVCAR-8 ovarian
[42] = system: RXF-631 renal
[43] = system: SW-620 colon
[44] = system: RXF 393 renal
[45] = system: OVCAR-5 ovarian
[46] = system: OVCAR-3 ovarian
[47] = system: UO-31 renal
[48] = system: NCI-H226 lung
[49] = system: SF-539 CNS
[50] = system: UACC-62 melanoma
[51] = system: NCI-H23 lung
[52] = system: HCT-116 colon
[53] = system: LOX IMVI melanoma
[54] = system: COLO 205 colon
[55] = system: KM20L2 colon
[56] = system: HOP-18 NSCLC
[57] = system: HCT-15 colon
[58] = system: DMS 114 small cell lung
[59] = system: EKVX NSCLC

Structure (SMILES): CNC(=O)NCCN1N=C(C)/C(=C\c2ccccc2)CC1=O
- TGI [1]: > 100 µM
- TGI [2]: > 100 µM
- TGI [3]: > 100 µM
- TGI [4]: > 100 µM
- TGI [5]: > 100 µM
- TGI [6]: > 100 µM
- TGI [7]: > 100 µM
- TGI [8]: > 100 µM
- TGI [9]: > 100 µM
- TGI [10]: > 100 µM
- TGI [11]: > 100 µM
- TGI [12]: > 100 µM
- TGI [13]: > 100 µM
- TGI [14]: > 100 µM
- TGI [15]: > 100 µM
- TGI [16]: > 100 µM
- TGI [17]: > 100 µM
- TGI [18]: > 100 µM
- TGI [19]: > 100 µM
- TGI [20]: > 100 µM
- TGI [21]: > 100 µM
- TGI [22]: > 100 µM
- TGI [23]: > 100 µM
- TGI [24]: > 100 µM
- TGI [25]: > 100 µM
- TGI [26]: > 100 µM
- TGI [27]: > 100 µM
- TGI [28]: > 100 µM
- TGI [29]: > 100 µM
- TGI [30]: > 100 µM
- TGI [31]: > 100 µM
- TGI [32]: > 100 µM
- TGI [33]: > 100 µM
- TGI [34]: > 100 µM
- TGI [35]: > 100 µM
- TGI [36]: > 100 µM
- TGI [37]: > 100 µM
- TGI [38]: > 100 µM
- TGI [39]: > 100 µM
- TGI [40]: > 100 µM
- TGI [41]: > 100 µM
- TGI [42]: > 100 µM
- TGI [43]: > 100 µM
- TGI [44]: > 100 µM
- TGI [45]: > 100 µM
- TGI [46]: > 100 µM
- TGI [47]: > 100 µM
- TGI [48]: > 100 µM
- TGI [49]: > 100 µM
- TGI [50]: > 100 µM
- TGI [51]: > 100 µM
- TGI [52]: > 100 µM
- TGI [53]: > 100 µM

Structure (SMILES): CC(=O)OCC1=CC2CCC3C(C)(CCC[C@]3(C)COC(C)=O)C23CC[C@H]1C3 (stereo partly drawn)
- TGI [54]: 49.3 µM
- TGI [1]: 73.3 µM
- TGI [2]: > 100 µM
- TGI [3]: > 100 µM
- TGI [4]: > 100 µM
- TGI [5]: > 100 µM
- TGI [6]: > 100 µM
- TGI [7]: > 100 µM
- TGI [8]: > 100 µM
- TGI [9]: > 100 µM
- TGI [10]: > 100 µM
- TGI [11]: > 100 µM
- TGI [12]: > 100 µM
- TGI [13]: 58.8 µM
- TGI [14]: > 100 µM
- TGI [15]: > 100 µM
- TGI [16]: 51.5 µM
- TGI [17]: > 100 µM
- TGI [18]: 63.1 µM
- TGI [19]: > 100 µM
- TGI [20]: > 100 µM
- TGI [21]: > 100 µM
- TGI [22]: 53.6 µM
- TGI [23]: 93.3 µM
- TGI [24]: > 100 µM
- TGI [25]: 90.2 µM
- TGI [26]: > 100 µM
- TGI [27]: > 100 µM
- TGI [28]: > 100 µM
- TGI [29]: > 100 µM
- TGI [30]: > 100 µM
- TGI [31]: > 100 µM
- TGI [32]: 45.4 µM
- TGI [33]: > 100 µM
- TGI [34]: 76.5 µM
- TGI [35]: 86.3 µM
- TGI [55]: > 100 µM
- TGI [36]: > 100 µM
- TGI [37]: 81.9 µM
- TGI [38]: > 100 µM
- TGI [56]: > 100 µM
- TGI [57]: > 100 µM
- TGI [39]: > 100 µM
- TGI [41]: > 100 µM
- TGI [42]: > 100 µM
- TGI [43]: > 100 µM
- TGI [44]: 93 µM
- TGI [45]: > 100 µM
- TGI [46]: > 100 µM
- TGI [47]: > 100 µM
- TGI [48]: > 100 µM
- TGI [49]: > 100 µM
- TGI [50]: > 100 µM
- TGI [58]: 44.3 µM
- TGI [51]: > 100 µM
- TGI [52]: > 100 µM
- TGI [59]: > 100 µM
- TGI [53]: 62.3 µM

Structure (SMILES): O=S(=O)(CF)OCCCCOS(=O)(=O)CF
- TGI [54]: > 100 µM
- TGI [1]: > 100 µM
- TGI [2]: > 100 µM
- TGI [3]: > 100 µM
- TGI [4]: > 100 µM
- TGI [5]: > 100 µM
- TGI [6]: > 100 µM
- TGI [8]: > 100 µM
- TGI [9]: > 100 µM
- TGI [11]: > 100 µM
- TGI [13]: > 100 µM
- TGI [14]: > 100 µM
- TGI [15]: > 100 µM
- TGI [16]: > 100 µM
- TGI [17]: > 100 µM
- TGI [18]: > 100 µM
- TGI [19]: > 100 µM
- TGI [20]: > 100 µM
- TGI [21]: > 100 µM
- TGI [22]: > 100 µM
- TGI [23]: > 100 µM
- TGI [24]: > 100 µM
- TGI [25]: 82.6 µM
- TGI [26]: > 100 µM
- TGI [27]: > 100 µM
- TGI [30]: > 100 µM
- TGI [32]: > 100 µM
- TGI [33]: > 100 µM
- TGI [55]: > 100 µM
- TGI [36]: > 100 µM
- TGI [56]: > 100 µM
- TGI [57]: > 100 µM
- TGI [39]: > 100 µM
- TGI [40]: > 100 µM
- TGI [41]: > 100 µM
- TGI [42]: > 100 µM
- TGI [43]: > 100 µM
- TGI [46]: > 100 µM
- TGI [47]: > 100 µM
- TGI [48]: > 100 µM
- TGI [49]: > 100 µM
- TGI [50]: > 100 µM
- TGI [58]: > 100 µM
- TGI [51]: > 100 µM
- TGI [52]: > 100 µM
- TGI [59]: > 100 µM
- TGI [53]: > 100 µM

Structure (SMILES): Cc1cc(C)c(C(=O)C(C)C(c2ccccc2)c2ccc(Cl)cc2)c(C)c1 (stereo not drawn)
- TGI [54]: > 100 µM
- TGI [1]: > 100 µM
- TGI [2]: > 100 µM
- TGI [3]: > 100 µM
- TGI [5]: > 100 µM
- TGI [6]: > 100 µM
- TGI [7]: > 100 µM
- TGI [8]: > 100 µM
- TGI [9]: > 100 µM
- TGI [10]: > 100 µM
- GI50 [11]: 9.38 µM and 32.1 µM
- TGI [11]: > 100 µM
- TGI [12]: > 100 µM
- TGI [13]: > 100 µM
- TGI [14]: > 100 µM
- TGI [15]: > 100 µM
- TGI [16]: > 100 µM
- TGI [17]: > 100 µM
- GI50 [18]: 82.4 µM and 29.3 µM
- TGI [18]: > 100 µM
- TGI [19]: > 100 µM
- GI50 [20]: > 100 µM
- TGI [20]: > 100 µM
- TGI [21]: 71.9 µM and > 100 µM
- GI50 [22]: > 100 µM and 39.6 µM
- TGI [22]: > 100 µM
- TGI [23]: > 100 µM
- TGI [24]: > 100 µM
- GI50 [25]: 47.4 µM and > 100 µM
- TGI [25]: > 100 µM
- TGI [26]: > 100 µM
- TGI [27]: > 100 µM
- TGI [28]: > 100 µM
- TGI [29]: > 100 µM
- TGI [30]: > 100 µM
- TGI [31]: > 100 µM
- GI50 [32]: > 100 µM and 15.9 µM
- TGI [32]: > 100 µM and 65.5 µM
- TGI [33]: > 100 µM
- TGI [34]: > 100 µM
- GI50 [55]: > 100 µM and 47.2 µM
- TGI [55]: > 100 µM
- TGI [37]: > 100 µM
- TGI [38]: > 100 µM
- TGI [56]: > 100 µM
- TGI [57]: > 100 µM
- TGI [39]: > 100 µM
- TGI [41]: > 100 µM
- TGI [42]: > 100 µM
- TGI [43]: > 100 µM
- TGI [44]: > 100 µM
- TGI [46]: > 100 µM
- TGI [47]: > 100 µM
- TGI [48]: > 100 µM
- TGI [49]: > 100 µM
- TGI [50]: > 100 µM
- TGI [58]: > 100 µM
- TGI [51]: > 100 µM
- TGI [52]: > 100 µM
- TGI [59]: > 100 µM
